US10385057B2, “Pyrazole compounds and methods of making and using same” (Lundbeck La Jolla Research Center, Inc., priority 2015, dated 2019)

Assays:
MAGL = molecular target: T1, MAGL (Mus musculus, UniProt O35678); test: In vitro competitive activity-based protein profiling, mouse MAGL; format: biochemical; conditions: for inhibition at 1 µM: read-out: MAGL % inh. 1 μM (mouse)
T1 construct: mouse brain membrane fraction or cell lysates for mouse assays; from tissue
T1 sequence (O35678 1-303): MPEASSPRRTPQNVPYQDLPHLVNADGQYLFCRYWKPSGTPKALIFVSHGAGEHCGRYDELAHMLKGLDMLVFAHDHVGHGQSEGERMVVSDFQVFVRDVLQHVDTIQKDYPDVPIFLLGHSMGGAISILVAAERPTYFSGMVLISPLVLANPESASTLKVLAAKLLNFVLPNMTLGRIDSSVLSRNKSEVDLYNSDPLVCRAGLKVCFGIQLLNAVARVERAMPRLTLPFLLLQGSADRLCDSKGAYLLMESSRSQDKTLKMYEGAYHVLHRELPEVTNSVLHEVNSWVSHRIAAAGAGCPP
Method in brief: (§1)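 Mouse brain membranes or cell lysates (mouse) and human prefrontal cortex or cell membrane fractions (human), 1.0 mg/mL protein, preincubated with inhibitor 30 min at 37 °C, then FP-Rh or HT-01 probe 30 min at 37 °C. SDS-PAGE; MAGL and FAAH activity from in-gel fluorescence band intensity.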

FAAH = molecular target: T2, FAAH (Mus musculus, UniProt O08914); test: In vitro competitive activity-based protein profiling, mouse FAAH; format: biochemical; conditions: for inhibition at 1 µM: read-out: FAAH % inh. 1 μM (mouse)
T2 construct: mouse brain membrane fraction or cell lysates for mouse assays; from tissue
T2 sequence (O08914 1-579): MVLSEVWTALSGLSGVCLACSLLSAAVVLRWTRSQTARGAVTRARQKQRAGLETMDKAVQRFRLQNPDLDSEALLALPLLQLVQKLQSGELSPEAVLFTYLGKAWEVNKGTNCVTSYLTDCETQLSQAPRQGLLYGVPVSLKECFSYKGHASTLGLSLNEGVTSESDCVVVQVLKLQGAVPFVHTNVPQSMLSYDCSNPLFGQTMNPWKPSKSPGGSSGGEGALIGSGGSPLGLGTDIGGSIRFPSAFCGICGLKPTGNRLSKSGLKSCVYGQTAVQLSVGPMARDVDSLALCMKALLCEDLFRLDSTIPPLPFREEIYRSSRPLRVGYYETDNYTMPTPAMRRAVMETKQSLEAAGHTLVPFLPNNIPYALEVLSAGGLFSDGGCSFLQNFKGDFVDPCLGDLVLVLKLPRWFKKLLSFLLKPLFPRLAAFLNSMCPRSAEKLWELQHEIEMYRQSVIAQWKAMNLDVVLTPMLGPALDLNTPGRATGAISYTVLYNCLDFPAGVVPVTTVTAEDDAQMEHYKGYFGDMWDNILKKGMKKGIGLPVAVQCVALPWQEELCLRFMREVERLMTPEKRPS
Method in brief: as §1

IC50 (MAGL)	inhibition at 1 µM (MAGL)	IC50 (FAAH)	inhibition at 1 µM (FAAH; 1 μM)	Compound	MAGL % inh. 1 μM (mouse) (MAGL)	FAAH % inh. 1 μM (mouse) (FAAH; 1 μM)
≤ 100 nM	≥ 75%	≤ 100 nM	≥ 75%	CN(Cc1cccc(C(F)(F)F)c1)[C@H]1C[C@@H]2CN(C(=O)n3cc(Cl)cn3)C[C@@H]2C1 [Example 83, (4-chloro-1H-pyrazol-1-yl)(trans-5-(methyl(3-(trifluoromethyl)benzyl)amino)hexahydrocyclopenta[c]pyrrol-2(1H)-yl)methanone]	–	–
–	–	–	–	CNC(=O)c1cnn(C(=O)N2C[C@H]3C[C@@H](N(C)Cc4ccccc4Cl)C[C@H]3C2)c1 [Example 84, 1-(cis-5-((2-chlorobenzyl)(methyl)amino)octahydrocyclopenta[c]pyrrole-2-carbonyl)-N-methyl-1H-pyrazole-4-carboxamide]	A (% inhibition greater than or equal to 75%)	A (% inhibition greater than or equal to 75%)
–	50 to 75%	–	≥ 75%	CN(Cc1ccccc1Cl)[C@@H]1C[C@@H]2CN(C(=O)n3cc(C(=O)N4CCOCC4)cn3)C[C@@H]2C1 [Example 85, (cis-5-((2-chlorobenzyl)(methyl)amino)hexahydrocyclopenta[c]pyrrol-2(1H)-yl)(4-(morpholine-4-carbonyl)-1H-pyrazol-1-yl)methanone]	–	–
–	50 to 75%	–	≥ 75%	CN(Cc1ccccc1Cl)[C@H]1C[C@@H]2CN(C(=O)n3cc(C(=O)N4CCOCC4)cn3)C[C@@H]2C1 [Example 86, (trans-5-((2-chlorobenzyl)(methyl)amino)hexahydrocyclopenta[c]pyrrol-2(1H)-yl)(4-(morpholine-4-carbonyl)-1H-pyrazol-1-yl)methanone]	–	–
–	25 to 50%	–	0 to 25%	CN(Cc1ccccc1Cl)[C@@H]1C[C@@H]2CN(C(=O)n3cc(C(=O)N4CCN(C5CC5)CC4)cn3)C[C@@H]2C1 [Example 87, (cis-5-((2-chlorobenzyl)(methyl)amino)hexahydrocyclopenta[c]pyrrol-2(1H)-yl)(4-(4-cyclopropylpiperazine-1-carbonyl)-1H-pyrazol-1-yl)methanone]	–	–
–	–	–	≥ 75%	CN(Cc1ccccc1Cl)[C@@H]1C[C@@H]2CN(C(=O)n3cc(C(=O)N4CCCC4)cn3)C[C@@H]2C1 [Example 89, (cis-5-((2-chlorobenzyl)(methyl)amino)hexahydrocyclopenta[c]pyrrol-2(1H)-yl)(4-(pyrrolidine-1-carbonyl)-1H-pyrazol-1-yl)methanone]	C (% inhibition greater than or equal to 25% and less than 50%)	–
–	50 to 75%	–	≥ 75%	CNC(=O)c1cnn(C(=O)N2C[C@H]3C[C@@H](N(C)Cc4ccccc4C(F)(F)F)C[C@H]3C2)c1 [Example 91, N-methyl-1-(cis-5-(methyl(2-(trifluoromethyl)benzyl)amino)octahydrocyclopenta[c]pyrrole-2-carbonyl)-1H-pyrazole-4-carboxamide]	–	–
–	≥ 75%	–	≥ 75%	CN(Cc1ccccc1C(F)(F)F)[C@@H]1C[C@@H]2CN(C(=O)n3cc(C(=O)N4CCCC4)cn3)C[C@@H]2C1 [Example 92, (cis-5-(methyl(2-(trifluoromethyl)benzyl)amino)hexahydrocyclopenta[c]pyrrol-2(1H)-yl)(4-(pyrrolidine-1-carbonyl)-1H-pyrazol-1-yl)methanone]	–	–
–	50 to 75%	–	≥ 75%	CN(Cc1ccccc1C(F)(F)F)[C@@H]1C[C@@H]2CN(C(=O)n3cc(C(=O)N4CCOCC4)cn3)C[C@@H]2C1 [Example 93, (cis-5-(methyl(2-(trifluoromethyl)benzyl)amino)hexahydrocyclopenta[c]pyrrol-2(1H)-yl)(4-(morpholine-4-carbonyl)-1H-pyrazol-1-yl)methanone]	–	–
